Biological target: T1, purified recombinantly expressed human SSAO (Homo sapiens, UniProt Q16853)
T1 construct: made in house
T1 sequence (Q16853 29-763 limits assumed): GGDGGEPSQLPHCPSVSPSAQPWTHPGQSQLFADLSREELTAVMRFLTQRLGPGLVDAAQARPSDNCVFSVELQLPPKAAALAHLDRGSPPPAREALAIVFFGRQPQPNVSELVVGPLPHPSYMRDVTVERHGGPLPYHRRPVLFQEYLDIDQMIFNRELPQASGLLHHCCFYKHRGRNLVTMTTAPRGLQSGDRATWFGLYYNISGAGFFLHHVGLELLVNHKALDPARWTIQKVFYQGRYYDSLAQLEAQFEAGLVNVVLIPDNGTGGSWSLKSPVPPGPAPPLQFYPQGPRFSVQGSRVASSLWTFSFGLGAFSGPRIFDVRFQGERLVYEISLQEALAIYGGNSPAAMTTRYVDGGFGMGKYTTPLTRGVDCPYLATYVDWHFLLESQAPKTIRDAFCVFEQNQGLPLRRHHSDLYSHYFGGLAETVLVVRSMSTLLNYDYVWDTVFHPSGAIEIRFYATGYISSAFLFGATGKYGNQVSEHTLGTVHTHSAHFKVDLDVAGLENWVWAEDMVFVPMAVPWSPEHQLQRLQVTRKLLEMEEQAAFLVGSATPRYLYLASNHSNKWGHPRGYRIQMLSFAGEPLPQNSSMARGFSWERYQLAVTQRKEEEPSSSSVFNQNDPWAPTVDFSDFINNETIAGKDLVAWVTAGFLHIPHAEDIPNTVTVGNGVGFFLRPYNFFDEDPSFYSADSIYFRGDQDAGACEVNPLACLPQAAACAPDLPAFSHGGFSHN
Experiment: SSAO enzyme inhibition assay (benzylamine substrate; hydrogen peroxide/HRP-coupled or 14C aldehyde detection)
Type: biochemical
Conditions: human recombinant SSAO, RT, benzylamine as substrate; read-out: SSAO inhibitory activity IC50
Description: All primary assays were performed at RT. with purified recombinantly expressed human SSAO. Enzyme was prepared essentially as described in Ohman et al. (Protein Expression and Purification 46 (2006) 321 331). In addition, secondary- and selectivity assays were performed using SSAO prepared from various tissues or purified rat recombinant SSAO. The enzyme activity was assayed with benzylamine as substrate by measuring either benzaldehyde production, using ^14C-labeled substrate, or by utilizing the production of hydrogen peroxide in a horseradish peroxidase (HRP) coupled reaction. Briefly, test compounds were dissolved in dimethyl sulfoxide (DMSO) to a concentration of 10 mM. Dose-response measurements were assayed by either creating 1:10 serial dilutions in DMSO to produce a 7 point curve or by making 1:3 serial dilutions in DMSO to produce 11 point curves. The top concentrations were adjusted depending on the potency of the compounds and subsequent dilution in reaction buffer yielded a final DMSO concentration ≦2%.
In a horseradish peroxidase (HRP) coupled reaction, hydrogen peroxide oxidation of 10-acetyl-3,7-dihydroxyphenoxazine produced resorufin, which is a highly fluorescent compound (Zhout and Panchuk-Voloshina. Analytical Biochemistry 253 (1997) 169-174; Amplex® Red Hydrogen Peroxide/peroxidase Assay kit, Invitrogen A22188). Enzyme and compounds in 50 mM sodium phosphate, pH 7.4 were set to pre-incubate in flat-bottomed microtiter plates for approximately 15 minutes before initiating the reaction by addition of a mixture of HRP, benzylamine and Amplex reagent. Benzylamine concentration was fixed at a concentration corresponding to the Michaelis constant, determined using standard procedures. Fluorescence intensity was then measured at several time points during 1-2 hours, exciting at 544 nm and reading the emission at 590 nm. For the human SSAO assay final concentrations of the reagents in the assay wells were: SSAO enzyme 1 μg/ml, benzylamine 100 μM, Amplex reagent 20 μM, HRP 0.1 U/mL and varying concentrations of test compound. The inhibition was measured as % decrease of the signal compared to a control without inhibitor (only diluted DMSO). The background signal from a sample containing no SSAO enzyme was subtracted from all data points. Data was fitted to a four parameter logistic model and IC50 values were calculated using the GraphPad Prism 4 or XLfit 4 programs.
SSAO activity was assayed using 14C-labeled benzylamine and analysed by measuring radioactive benzaldehyde. In a white 96-well optiplate (Packard), 20 μL of diluted test compound was pre-incubated at RT. with 20 μL SSAO enzyme for approximately 15 minutes with continuous agitation. All dilutions were made with PBS. The reaction was initiated by adding 20 μL of the benzylamine substrate solution containing [7-14C] Benzylamine hydrochloride (CFA589, GE Healthcare). The plate was incubated for 1 hour as above after which the reaction was stopped by acidification (10 μL 1 M HCl). Then 90 μL Micro Scint-E solution (Perkin-Elmer) was added to each well and the plate was continuously mixed for 15 minutes. Phase separation occurred instantly and activity was read in a Topcount scintillation counter (Perkin-Elmer). In the final reaction well, the human recombinant SSAO concentration was 10 μg/ml. In order to optimize sensitivity, the substrate concentration was decreased as compared to the HRP coupled assay in order to get a higher fraction of radioactive product. In the human SSAO assay, benzylamine concentration was 40 μM (0.2 μCi/mL). Data was analysed as above.

Row | SMILES | IC50 [nM]
1 | NCCN1CCC(c2cn(-c3ccc(Cl)cc3)c3cnccc23)CC1 [Example 1, 2,2,2-Trifluoroacetic acid; 2-{4-[1-(4-chlorophenyl)-1H-pyrrolo[2,3-c]pyridin-3-yl]piperidin-1-yl}ethan-1-amine] | < 100
2 | Clc1ccc(-n2nc(C3CCN(Cc4cccnc4)CC3)c3ccncc32)cc1 [Example 30, 3-({4-[1-(4-Chlorophenyl)-1H-pyrazolo[3,4-c]pyridin-3-yl]piperidin-1-yl}methyl)pyridine] | 100 to 500
3 | FCc1ccc(-n2nc(C3CCOCC3)c3ccncc32)cc1 [Example 29, 1-[4-(Fluoromethyl)phenyl]-3-(oxan-4-yl)-1H-pyrazolo[3,4-c]pyridine] | 100 to 500

Source: US9150574B2, “Enzyme inhibitor compounds” (Proximagen Limited, priority 2011, dated 2015)
